In the NIST ThermoML archive (doi:10.1016/j.jct.2007.05.011):

Assay: xn = mol fraction of the nth substance listed
Settings: 101 kPa, Liquid; for mass density: Vibrating tube method

NCCO.O=CO [2-hydroxyethylammonium formate] + O
Settings | mass density [kg/m3] | speed of sound [m/s]
288.15 K, x2 = 0 | 1183.57 | 1733.9
288.15 K, x2 = 0.047 | 1182.89 | 1759.2
288.15 K, x2 = 0.108 | 1181.45 | 1760.3
288.15 K, x2 = 0.199 | 1178.55 | 1761.4
288.15 K, x2 = 0.311 | 1173.68 | 1761.4
288.15 K, x2 = 0.4 | 1168.78 | 1759.7
288.15 K, x2 = 0.492 | 1162.23 | 1757.1
288.15 K, x2 = 0.601 | 1151.56 | 1749.9
288.15 K, x2 = 0.699 | 1137.39 | 1739.3
288.15 K, x2 = 0.8 | 1114.92 | 1710.8
288.15 K, x2 = 0.9 | 1076.21 | 1644.7
288.15 K, x2 = 0.95 | 1045.03 | 1578.9
290.65 K, x2 = 0 | 1181.81 | 1727.4
290.65 K, x2 = 0.047 | 1181.24 | 1754
290.65 K, x2 = 0.108 | 1179.79 | 1755.5
290.65 K, x2 = 0.199 | 1176.92 | 1756.4
290.65 K, x2 = 0.311 | 1172.05 | 1756.7
290.65 K, x2 = 0.4 | 1167.17 | 1755.1
290.65 K, x2 = 0.492 | 1160.63 | 1752.9
290.65 K, x2 = 0.601 | 1149.99 | 1746.3
290.65 K, x2 = 0.699 | 1135.87 | 1736.3
290.65 K, x2 = 0.8 | 1113.52 | 1709.2
290.65 K, x2 = 0.9 | 1075.06 | 1645.8
290.65 K, x2 = 0.95 | 1044.13 | 1582.3
293.15 K, x2 = 0 | 1180.04 | 1721.3
293.15 K, x2 = 0.047 | 1179.6 | 1748.9
293.15 K, x2 = 0.108 | 1178.13 | 1750.5
293.15 K, x2 = 0.199 | 1175.29 | 1751.4
293.15 K, x2 = 0.311 | 1170.43 | 1752
293.15 K, x2 = 0.4 | 1165.55 | 1750.6
293.15 K, x2 = 0.492 | 1159.04 | 1748.7
293.15 K, x2 = 0.601 | 1148.42 | 1742.6
293.15 K, x2 = 0.699 | 1134.35 | 1733.3
293.15 K, x2 = 0.8 | 1112.1 | 1707.5
293.15 K, x2 = 0.9 | 1073.89 | 1646.8
293.15 K, x2 = 0.95 | 1043.2 | 1585.6
295.65 K, x2 = 0 | 1178.27 | 1715.1
295.65 K, x2 = 0.047 | 1177.95 | 1743.8
295.65 K, x2 = 0.108 | 1176.52 | 1745.4
295.65 K, x2 = 0.199 | 1173.65 | 1746.5
295.65 K, x2 = 0.311 | 1168.8 | 1747.2
295.65 K, x2 = 0.4 | 1163.94 | 1746.1
295.65 K, x2 = 0.492 | 1157.44 | 1744.4
295.65 K, x2 = 0.601 | 1146.85 | 1738.9
295.65 K, x2 = 0.699 | 1132.83 | 1730.2
295.65 K, x2 = 0.8 | 1110.67 | 1705.6
295.65 K, x2 = 0.9 | 1072.7 | 1647.6
295.65 K, x2 = 0.95 | 1042.26 | 1588.8
298.15 K, x2 = 0 | 1176.49 | 1709
298.15 K, x2 = 0.047 | 1176.31 | 1738.7
298.15 K, x2 = 0.108 | 1174.91 | 1740.4
298.15 K, x2 = 0.199 | 1172.02 | 1741.6
298.15 K, x2 = 0.311 | 1167.18 | 1742.5
298.15 K, x2 = 0.4 | 1162.32 | 1741.6
298.15 K, x2 = 0.492 | 1155.83 | 1740.2
298.15 K, x2 = 0.601 | 1145.28 | 1735.1
298.15 K, x2 = 0.699 | 1131.3 | 1727.1
298.15 K, x2 = 0.8 | 1109.23 | 1703.7
298.15 K, x2 = 0.9 | 1071.48 | 1648.3
298.15 K, x2 = 0.95 | 1041.28 | 1591.7
300.65 K, x2 = 0 | 1174.71 | 1702.9
300.65 K, x2 = 0.047 | 1174.67 | 1733.6
300.65 K, x2 = 0.108 | 1173.29 | 1735.3
300.65 K, x2 = 0.199 | 1170.39 | 1736.7
300.65 K, x2 = 0.311 | 1165.55 | 1737.8
300.65 K, x2 = 0.4 | 1160.7 | 1737.1
300.65 K, x2 = 0.492 | 1154.23 | 1735.9
300.65 K, x2 = 0.601 | 1143.7 | 1731.2
300.65 K, x2 = 0.699 | 1129.77 | 1723.9
300.65 K, x2 = 0.8 | 1107.79 | 1701.8
300.65 K, x2 = 0.9 | 1070.24 | 1648.7
300.65 K, x2 = 0.95 | 1040.27 | 1594.4
303.15 K, x2 = 0 | 1172.94 | 1696.8
303.15 K, x2 = 0.047 | 1173.02 | 1728.5
303.15 K, x2 = 0.108 | 1171.66 | 1730.3
303.15 K, x2 = 0.199 | 1168.76 | 1731.8
303.15 K, x2 = 0.311 | 1163.93 | 1733.1
303.15 K, x2 = 0.4 | 1159.09 | 1732.6
303.15 K, x2 = 0.492 | 1152.62 | 1731.6
303.15 K, x2 = 0.601 | 1142.12 | 1727.4
303.15 K, x2 = 0.699 | 1128.22 | 1720.7
303.15 K, x2 = 0.8 | 1106.33 | 1699.7
303.15 K, x2 = 0.9 | 1068.98 | 1649
303.15 K, x2 = 0.95 | 1039.22 | 1596.8
305.65 K, x2 = 0 | 1171.16 | –
305.65 K, x2 = 0.047 | 1171.38 | –
305.65 K, x2 = 0.108 | 1170.03 | –
305.65 K, x2 = 0.199 | 1167.12 | –
305.65 K, x2 = 0.311 | 1162.3 | –
305.65 K, x2 = 0.4 | 1157.47 | –
305.65 K, x2 = 0.492 | 1151.02 | –
305.65 K, x2 = 0.601 | 1140.53 | –
305.65 K, x2 = 0.699 | 1126.67 | –
305.65 K, x2 = 0.8 | 1104.86 | –
305.65 K, x2 = 0.9 | 1067.69 | –
305.65 K, x2 = 0.95 | 1038.12 | –
